Experimental data: PubChem BioAssay (NCI)
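Step 1: Grow cells in 96-well plates. Step 2: Expose to compound for 48 hours at 5 concentrations. Step 3: Interpolate endpoints linearly; if unreached, use highest concentration. At the GI50, growth is halved. TGI is the concentration that stops growth completely.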

How the values were obtained:
Assay in all cases: NCI anticancer screen, dose series, 48 h
RPMI-8226 leukemia = tested on: RPMI-8226 leukemia
MDA-MB-231 breast = tested on: MDA-MB-231 breast
SK-MEL-2 melanoma = tested on: SK-MEL-2 melanoma
NCI-H522 lung = tested on: NCI-H522 lung
NCI/ADR-RES ovarian = tested on: NCI/ADR-RES ovarian
NCI-H460 lung = tested on: NCI-H460 lung
UACC-62 melanoma = tested on: UACC-62 melanoma
SW-620 colon = tested on: SW-620 colon
K-562 leukemia = tested on: K-562 leukemia
HL-60(TB) leukemia = tested on: HL-60(TB) leukemia
OVCAR-5 ovarian = tested on: OVCAR-5 ovarian
SF-268 CNS = tested on: SF-268 CNS
SK-MEL-28 melanoma = tested on: SK-MEL-28 melanoma
HOP-62 NSCLC = tested on: HOP-62 NSCLC
MDA-MB-435 = tested on: MDA-MB-435
A498 renal = tested on: A498 renal
A549 NSCLC = tested on: A549 NSCLC
LOX IMVI melanoma = tested on: LOX IMVI melanoma
SK-OV-3 ovarian = tested on: SK-OV-3 ovarian
TK-10 renal = tested on: TK-10 renal
SF-295 CNS = tested on: SF-295 CNS
UACC-257 melanoma = tested on: UACC-257 melanoma
ACHN renal = tested on: ACHN renal
OVCAR-4 ovarian = tested on: OVCAR-4 ovarian
SNB-75 CNS = tested on: SNB-75 CNS
T-47D breast = tested on: T-47D breast
MALME-3M melanoma = tested on: MALME-3M melanoma
OVCAR-3 ovarian = tested on: OVCAR-3 ovarian
CAKI-1 renal = tested on: CAKI-1 renal
M14 melanoma = tested on: M14 melanoma
CCRF-CEM leukemia = tested on: CCRF-CEM leukemia
IGROV1 ovarian = tested on: IGROV1 ovarian
MOLT-4 leukemia = tested on: MOLT-4 leukemia
DU-145 prostate = tested on: DU-145 prostate
BT-549 breast = tested on: BT-549 breast
SR leukemia = tested on: SR leukemia
EKVX NSCLC = tested on: EKVX NSCLC
SF-539 CNS = tested on: SF-539 CNS
PC-3 prostate = tested on: PC-3 prostate
NCI-H23 lung = tested on: NCI-H23 lung
KM12 colon = tested on: KM12 colon
RXF 393 renal = tested on: RXF 393 renal
SN12C renal = tested on: SN12C renal
NCI-H226 lung = tested on: NCI-H226 lung
HT29 colon = tested on: HT29 colon
SNB-19 CNS = tested on: SNB-19 CNS
MCF7 breast = tested on: MCF7 breast
HCC-2998 colon = tested on: HCC-2998 colon
HCT-116 colon = tested on: HCT-116 colon
HOP-92 NSCLC = tested on: HOP-92 NSCLC
UO-31 renal = tested on: UO-31 renal
COLO 205 colon = tested on: COLO 205 colon
786-0 renal = tested on: 786-0 renal
OVCAR-8 ovarian = tested on: OVCAR-8 ovarian
HCT-15 colon = tested on: HCT-15 colon
SK-MEL-5 melanoma = tested on: SK-MEL-5 melanoma
HS 578T breast = tested on: HS 578T breast
U251 CNS = tested on: U251 CNS

SMILES: c1ccc2[nH]c(SSc3nc4ncncc4[nH]3)nc2c1
- GI50 (RPMI-8226 leukemia): 0.709 µM
- TGI (RPMI-8226 leukemia): > 100 µM
- GI50 (MDA-MB-231 breast): 2.9 µM
- TGI (MDA-MB-231 breast): > 100 µM
- GI50 (SK-MEL-2 melanoma): 2.72 µM
- TGI (SK-MEL-2 melanoma): > 100 µM
- GI50 (NCI-H522 lung): 0.383 µM
- GI50 (NCI/ADR-RES ovarian): 1.74 µM
- TGI (NCI/ADR-RES ovarian): > 100 µM
- GI50 (NCI-H460 lung): 4.48 µM
- TGI (NCI-H460 lung): > 100 µM
- GI50 (UACC-62 melanoma): 0.729 µM
- TGI (UACC-62 melanoma): > 100 µM
- GI50 (SW-620 colon): 3.24 µM
- TGI (SW-620 colon): > 100 µM
- GI50 (K-562 leukemia): 0.278 µM
- TGI (K-562 leukemia): > 100 µM
- GI50 (HL-60(TB) leukemia): 0.71 µM
- TGI (HL-60(TB) leukemia): > 100 µM
- GI50 (OVCAR-5 ovarian): 13 µM
- TGI (OVCAR-5 ovarian): > 100 µM
- GI50 (SF-268 CNS): 4.13 µM
- TGI (SF-268 CNS): > 100 µM
- GI50 (SK-MEL-28 melanoma): 27.8 µM
- TGI (SK-MEL-28 melanoma): > 100 µM
- GI50 (HOP-62 NSCLC): 0.427 µM
- TGI (HOP-62 NSCLC): > 100 µM
- GI50 (MDA-MB-435): 0.446 µM
- TGI (MDA-MB-435): > 100 µM
- GI50 (A498 renal): 8.11 µM
- TGI (A498 renal): > 91.1 µM
- GI50 (A549 NSCLC): 19.4 µM
- TGI (A549 NSCLC): > 100 µM
- GI50 (LOX IMVI melanoma): 0.279 µM
- TGI (LOX IMVI melanoma): > 44.6 µM
- GI50 (SK-OV-3 ovarian): 0.37 µM
- TGI (SK-OV-3 ovarian): 34.2 µM
- GI50 (TK-10 renal): 0.364 µM
- TGI (TK-10 renal): > 37.3 µM
- GI50 (SF-295 CNS): 0.457 µM
- GI50 (UACC-257 melanoma): 4.97 µM
- TGI (UACC-257 melanoma): > 75.2 µM
- GI50 (ACHN renal): 4.14 µM
- TGI (ACHN renal): > 100 µM
- GI50 (OVCAR-4 ovarian): 3.64 µM
- TGI (OVCAR-4 ovarian): > 100 µM
- GI50 (SNB-75 CNS): 13.1 µM
- TGI (SNB-75 CNS): > 100 µM
- GI50 (T-47D breast): 0.489 µM
- TGI (T-47D breast): 98.9 µM
- GI50 (MALME-3M melanoma): 2.01 µM
- TGI (MALME-3M melanoma): > 66.1 µM
- GI50 (OVCAR-3 ovarian): 0.579 µM
- TGI (OVCAR-3 ovarian): > 100 µM
- GI50 (CAKI-1 renal): 0.212 µM
- TGI (CAKI-1 renal): 3.77 µM
- GI50 (M14 melanoma): 0.347 µM
- TGI (M14 melanoma): 82.1 µM
- GI50 (CCRF-CEM leukemia): 1.37 µM
- TGI (CCRF-CEM leukemia): > 100 µM
- GI50 (IGROV1 ovarian): 4.48 µM
- TGI (IGROV1 ovarian): 96.2 µM
- GI50 (MOLT-4 leukemia): 0.486 µM
- TGI (MOLT-4 leukemia): > 100 µM
- GI50 (DU-145 prostate): 0.674 µM
- TGI (DU-145 prostate): > 100 µM
- GI50 (BT-549 breast): 2.89 µM
- TGI (BT-549 breast): > 100 µM
- GI50 (SR leukemia): 0.551 µM
- TGI (SR leukemia): > 100 µM
- GI50 (EKVX NSCLC): 25.9 µM
- TGI (EKVX NSCLC): > 100 µM
- GI50 (SF-539 CNS): 0.989 µM
- TGI (SF-539 CNS): > 100 µM
- GI50 (PC-3 prostate): 5.37 µM
- TGI (PC-3 prostate): > 100 µM
- GI50 (NCI-H23 lung): 2.9 µM
- TGI (NCI-H23 lung): > 100 µM
- GI50 (KM12 colon): 3.85 µM
- TGI (KM12 colon): > 100 µM
- GI50 (RXF 393 renal): 32.1 µM
- TGI (RXF 393 renal): > 100 µM
- GI50 (SN12C renal): 5.38 µM
- TGI (SN12C renal): > 100 µM
- GI50 (NCI-H226 lung): 9.52 µM
- TGI (NCI-H226 lung): > 100 µM
- GI50 (HT29 colon): 2.58 µM
- TGI (HT29 colon): > 100 µM
- GI50 (SNB-19 CNS): 64.5 µM
- TGI (SNB-19 CNS): > 100 µM
- GI50 (MCF7 breast): 0.295 µM
- GI50 (HCC-2998 colon): 1.9 µM
- TGI (HCC-2998 colon): > 100 µM
- GI50 (HCT-116 colon): 0.913 µM
- TGI (HCT-116 colon): > 100 µM
- GI50 (HOP-92 NSCLC): 0.375 µM
- TGI (HOP-92 NSCLC): > 90.8 µM
- GI50 (UO-31 renal): 0.559 µM
- TGI (UO-31 renal): > 30.9 µM
- GI50 (COLO 205 colon): 2.59 µM
- TGI (COLO 205 colon): 10.2 µM
- GI50 (786-0 renal): 0.463 µM
- TGI (786-0 renal): > 100 µM
- GI50 (OVCAR-8 ovarian): 3.32 µM
- TGI (OVCAR-8 ovarian): > 100 µM
- GI50 (HCT-15 colon): 3.25 µM
- TGI (HCT-15 colon): > 100 µM
- GI50 (SK-MEL-5 melanoma): 3.62 µM
- TGI (SK-MEL-5 melanoma): > 100 µM
- GI50 (HS 578T breast): 8.92 µM
- TGI (HS 578T breast): > 100 µM
- GI50 (U251 CNS): 8.63 µM
- TGI (U251 CNS): > 100 µM
